Measured values published in patent publication US20240325398A1, “COMBINATION THERAPIES” (Infinity Pharmaceuticals, Inc., priority 2014, published 2024).

Key:
Assay in all cases: Combination study, ATPLite 72 h, dose matrix (Synergy Score, CI50)
Farage = conditions: Farage
SU-DHL-10-epst = tested on: SU-DHL-10-epst
RL = tested on: RL
Procedure: Cells are thawed from a liquid nitrogen preserved state. Once cells have been expanded and divide at their expected doubling times, screening begins. Cells are seeded in growth media in either black 1536-well or 384-well tissue culture treated plates. Cells are then equilibrated in assay plates via centrifugation and placed in incubators attached to the Dosing Modules at 37° C. for 24 hours before treatment. […] These Tzero (To) plates are read using ultra-sensitive luminescence on Envision plate readers (Perkin Elmer). Treated assay plates are incubated with compound for 72 hours. After 72 hours, plates are developed for endpoint analysis using ATPLite. All data points are collected via automated processes, quality controlled and analyzed using Zalicus software.
where T is treated cell count and V is untreated (vehicle) cell count (at 72 hours). I ranges from 0% (when T=V) to 100% (when T=0). […] The measure of effect in the experiment can be the inhibition of cellular response relative to the untreated level (vehicle alone). […] The inhibition ranges from 0% at the untreated level to 100% when T=0. Inhibition levels are negative for agents that actually increase levels. Other effect measures, such as an activity ratio r=T/V may be more appropriate for some assays. When activity ratios (e.g, fold increase over stimulated control) are being used, the effect can be measured using an induction 1=ln(T/V). With this definition, all effect expressions are the same as for inhibition.
Growth Inhibition (GI) is used as a measure of cell viability. […] A GI reading of 100% represents complete growth inhibition—T72 compound-treated and T0 vehicle signals are matched. […] A GI reading of 200% represents complete death of all cells in the culture well. Compounds reaching an activity plateau of GI 200% are considered cytotoxic. GI is calculated by applying the following test and equation:
Combination analysis data were collected in a 6×6 dose matrix. Synergy is calculated by comparing a combination's response to those of its single compound, against the drug-with-itself dose-additive reference model. Deviations from dose additivity may be assessed visually on an isobologram or numerically with a Combination Index (CI). […] Additive effect is CI=1.0. […] Antagonistic effect is CI>1.0.
To measure combination effects in excess of Loewe additivity, a scalar measure to characterize the strength of synergistic interaction termed the Synergy Score is devised. The Synergy Score is calculated as:
The fractional inhibition for each component agent and combination point in the matrix is calculated relative to the median of all vehicle-treated control wells. The Synergy Score equation integrates the experimentally-observed activity volume at each point in the matrix in excess of a model surface numerically derived from the activity of the component agents using the Loewe model for additivity. Additional terms in the Synergy Score equation (above) are used to normalize for various dilution factors used for individual agents and to allow for comparison of synergy scores across an entire experiment. The inclusion of positive inhibition gating or an Idata multiplier removes noise near the zero effect level, and biases results for synergistic interactions at that occur at high activity levels.
Loewe Volume (Loewe Vol) is used to assess the overall magnitude of the combination interaction in excess of the Loewe additivity model. Loewe Volume is particularly useful when distinguishing synergistic increases in a phenotypic activity (positive Loewe Volume) versus synergistic antagonisms (negative Loewe Volume). […] This model defines additivity as a non-synergistic combination interaction where the combination dose matrix surface should be indistinguishable from either drug crossed with itself.

KARPAS-422 = tested on: KARPAS-422
WSU-NHL = tested on: WSU-NHL

In the case of `CC[C@H](Nc1ncnc2[nH]cnc12)c1nc2cccc(F)c2c(=O)n1-c1ccccc1` [CAL-101], the CI50 inhibition (Farage; combination with PCI-32765) is reported as “S (S=0.01 to <0.5)”, the “Synergy Score growth inhibition” value (Farage; combination with PCI-32765) is reported as “A3 (A3=>3)” and the “Synergy Score inhibition” value (Farage; combination with PCI-32765) is reported as “A3 (A3=>3)”. The CI50 growth inhibition (Farage; combination with PD-0332991) was “T (T=0.5 to <0.7)”, the CI50 inhibition (Farage; combination with PD-0332991) was “T (T=0.5 to <0.7)” and the “Synergy Score growth inhibition” value (Farage; combination with PD-0332991) was “A2 (A2=1 to <3)”. The “Synergy Score inhibition” value (Farage; combination with PD-0332991) was “A1 (A1=0.0001 to <1)”, the CI50 growth inhibition (SU-DHL-10-epst; combination with Dexamethasone) was “S (S=0.01 to <0.5)” and the CI50 inhibition (SU-DHL-10-epst; combination with Dexamethasone) was “S (S=0.01 to <0.5)”. The “Synergy Score growth inhibition” value (SU-DHL-10-epst; combination with Dexamethasone) was “A3 (A3=>3)”, the “Synergy Score inhibition” value (SU-DHL-10-epst; combination with Dexamethasone) was “A2 (A2=1 to <3)” and the CI50 growth inhibition (SU-DHL-10-epst; combination with LEE011) was “T (T=0.5 to <0.7)”. For the same compound, the CI50 inhibition (SU-DHL-10-epst; combination with LEE011) was “T (T=0.5 to <0.7)”, the “Synergy Score growth inhibition” value (SU-DHL-10-epst; combination with LEE011) was “A3 (A3=>3)” and the “Synergy Score inhibition” value (SU-DHL-10-epst; combination with LEE011) was “A2 (A2=1 to <3)”. For the same compound, the CI50 growth inhibition (SU-DHL-10-epst; combination with PCI-32765) was “U (U=0.7 to <1)”, the CI50 inhibition (SU-DHL-10-epst; combination with PCI-32765) was “U (U=0.7 to <1)” and the “Synergy Score growth inhibition” value (SU-DHL-10-epst; combination with PCI-32765) was “A2 (A2=1 to <3)”. The “Synergy Score inhibition” value (SU-DHL-10-epst; combination with PCI-32765) was “A2 (A2=1 to <3)”, the CI50 growth inhibition (SU-DHL-10-epst; combination with PD-0332991) was “S (S=0.01 to <0.5)” and the CI50 inhibition (SU-DHL-10-epst; combination with PD-0332991) was “S (S=0.01 to <0.5)”. For the same compound, the “Synergy Score growth inhibition” value (SU-DHL-10-epst; combination with PD-0332991) was “A3 (A3=>3)”, the “Synergy Score inhibition” value (SU-DHL-10-epst; combination with PD-0332991) was “A3 (A3=>3)” and the CI50 growth inhibition (RL; combination with Dexamethasone) was “T (T=0.5 to <0.7)”. For the same compound, the CI50 inhibition (RL; combination with Dexamethasone) was “T (T=0.5 to <0.7)”, the “Synergy Score growth inhibition” value (RL; combination with Dexamethasone) was “A3 (A3=>3)” and the “Synergy Score inhibition” value (RL; combination with Dexamethasone) was “A2 (A2=1 to <3)”. For the same compound, the CI50 growth inhibition (RL; combination with LEE011) was “T (T=0.5 to <0.7)”, the CI50 inhibition (RL; combination with LEE011) was “U (U=0.7 to <1)” and the “Synergy Score growth inhibition” value (RL; combination with LEE011) was “A2 (A2=1 to <3)”. For the same compound, the “Synergy Score inhibition” value (RL; combination with LEE011) was “A1 (A1=0.0001 to <1)”, the CI50 growth inhibition (RL; combination with PCI-32765) was “T (T=0.5 to <0.7)” and the CI50 inhibition (RL; combination with PCI-32765) was “S (S=0.01 to <0.5)”. The “Synergy Score growth inhibition” value (RL; combination with PCI-32765) was “A2 (A2=1 to <3)”, the “Synergy Score inhibition” value (RL; combination with PCI-32765) was “A2 (A2=1 to <3)” and the CI50 growth inhibition (RL; combination with PD-0332991) was “S (S=0.01 to <0.5)”. The CI50 inhibition (RL; combination with PD-0332991) was “S (S=0.01 to <0.5)”, the “Synergy Score growth inhibition” value (RL; combination with PD-0332991) was “A2 (A2=1 to <3)” and the “Synergy Score inhibition” value (RL; combination with PD-0332991) was “A2 (A2=1 to <3)”. For the same compound, the CI50 growth inhibition (KARPAS-422; combination with Dexamethasone) was “U (U=0.7 to <1)”, the CI50 inhibition (KARPAS-422; combination with Dexamethasone) was “T (T=0.5 to <0.7)” and the “Synergy Score growth inhibition” value (KARPAS-422; combination with Dexamethasone) was “A3 (A3=>3)”. The “Synergy Score inhibition” value (KARPAS-422; combination with Dexamethasone) was “A2 (A2=1 to <3)”, the CI50 growth inhibition (KARPAS-422; combination with LEE011) was “T (T=0.5 to <0.7)” and the CI50 inhibition (KARPAS-422; combination with LEE011) was “T (T=0.5 to <0.7)”. For the same compound, the “Synergy Score growth inhibition” value (KARPAS-422; combination with LEE011) was “A2 (A2=1 to <3)”, the “Synergy Score inhibition” value (KARPAS-422; combination with LEE011) was “A2 (A2=1 to <3)” and the CI50 growth inhibition (KARPAS-422; combination with PCI-32765) was “S (S=0.01 to <0.5)”. The CI50 inhibition (KARPAS-422; combination with PCI-32765) was “S (S=0.01 to <0.5)”, the “Synergy Score growth inhibition” value (KARPAS-422; combination with PCI-32765) was “A3 (A3=>3)” and the “Synergy Score inhibition” value (KARPAS-422; combination with PCI-32765) was “A2 (A2=1 to <3)”. The CI50 growth inhibition (KARPAS-422; combination with PD-0332991) was “S (S=0.01 to <0.5)”, the CI50 inhibition (KARPAS-422; combination with PD-0332991) was “S (S=0.01 to <0.5)” and the “Synergy Score growth inhibition” value (KARPAS-422; combination with PD-0332991) was “A3 (A3=>3)”. For the same compound, the “Synergy Score inhibition” value (KARPAS-422; combination with PD-0332991) was “A2 (A2=1 to <3)”, the CI50 growth inhibition (WSU-NHL; combination with Dexamethasone) was “T (T=0.5 to <0.7)” and the CI50 inhibition (WSU-NHL; combination with Dexamethasone) was “T (T=0.5 to <0.7)”. For the same compound, the “Synergy Score growth inhibition” value (WSU-NHL; combination with Dexamethasone) was “A3 (A3=>3)”, the “Synergy Score inhibition” value (WSU-NHL; combination with Dexamethasone) was “A3 (A3=>3)” and the CI50 growth inhibition (WSU-NHL; combination with LEE011) was “T (T=0.5 to <0.7)”. For the same compound, the CI50 inhibition (WSU-NHL; combination with LEE011) was “S (S=0.01 to <0.5)”, the “Synergy Score growth inhibition” value (WSU-NHL; combination with LEE011) was “A2 (A2=1 to <3)” and the “Synergy Score inhibition” value (WSU-NHL; combination with LEE011) was “A2 (A2=1 to <3)”. For the same compound, the CI50 growth inhibition (WSU-NHL; combination with PCI-32765) was “S (S=0.01 to <0.5)”, the CI50 inhibition (WSU-NHL; combination with PCI-32765) was “S (S=0.01 to <0.5)” and the “Synergy Score growth inhibition” value (WSU-NHL; combination with PCI-32765) was “A3 (A3=>3)”. For the same compound, the “Synergy Score inhibition” value (WSU-NHL; combination with PCI-32765) was “A3 (A3=>3)”, the CI50 growth inhibition (WSU-NHL; combination with PD-0332991) was “S (S=0.01 to <0.5)” and the CI50 inhibition (WSU-NHL; combination with PD-0332991) was “S (S=0.01 to <0.5)”. For the same compound, the “Synergy Score growth inhibition” value (WSU-NHL; combination with PD-0332991) was “A2 (A2=1 to <3)” and the “Synergy Score inhibition” value (WSU-NHL; combination with PD-0332991) was “A2 (A2=1 to <3)”.
